As usually defined, the IC50 is the concentration that inhibits the measured activity by half. One may read the CC50 as the concentration giving 50% cytotoxicity.

Read-outs that look alike come from different tables or passages of the source.

This is an account of results in patent publication US12023323B2, “Carbohydrate-binding small molecules with antiviral activity” (priority 2018, dated 2024).

In data set [1] the test system is ZIKV GFP RVPs.
The conditions of data set [2]: Table 1, anti-ZIKV assay.
The nature of data set [3]: 1H NMR titration with octyloxy pyranoside β-Man. Type of data set: binding. The conditions noted are these: NMR titrations in CD2Cl2 at 298 K, 1:1 binding.
Data set [4] in a line: 1H NMR titration with octyloxy pyranoside α-Man. The note with it: NMR titrations in CD2Cl2 at 298 K, 1:1 binding. Type of data set: binding.
Data set [5] can be described thus: 1H NMR titration with octyloxy pyranoside α-Glc. Type of data set: binding.
Data set [6] is described as follows: NMR dilution experiments for dimerization. It counts as physicochemical. The note with it: dilution experiments in CD2Cl2.
In data set [7] the test system is ZIKV GFP RVPs. Put plainly: microbe, parasite or virus in culture. The note with it: Zika virus, Vero.
The nature of data set [8]: Cellular toxicity, CellTiter-Glo, Vero cells. The conditions noted are these: African green monkey. Background: ATP-based viability assays read luminescence as a measure of living cells.
In data set [9] the test system is N154Q mutant ZIKV RVPs. Type of data set: cell-based, Zika virus. The note with it: Vero cells.
The nature of data set [10]: 1H NMR titration with octyloxy pyranoside β-Glc. It counts as binding.
Data set [11] is described as follows: 1H NMR titration with octyloxy pyranoside β-Gal. It counts as binding. The note with it: NMR titrations.
Data set [12] can be described thus: Selectivity across the five octyloxy pyranosides from NMR titrations. It counts as binding.
Data set [13] concerns Vero cells. The data set can be described thus: Cellular toxicity, CellTiter-Glo, Vero cells.
The mark [14] stands for this setting: Table 3, Vero cells, ZIKV RVPs, average of at least two independent measurements.

With `O=C(NCc1cc(CNC(=O)c2ccco2)cc(-c2cc(CNC(=O)c3ccco3)cc(CNC(=O)c3ccco3)c2)c1)c1ccco1` [SCR007, N,N′,N′″-([1,1′-biphenyl]-3,3′,5,5′-tetrayltetrakis(methylene))tetrakis(furan-2-carboxamide)], the “anti-ZIKV activity in words” value in [1] is listed as “not effective”. In addition, the “solubility (words printed in the IC50 column)” value in [2] is recorded as “not soluble”.
Regarding `Oc1cccc(CNCc2cc(CNCc3cccc(O)c3)cc(-c3cc(CNCc4cccc(O)c4)cc(CNCc4cccc(O)c4)c3)c2)c1` [SCR023, 3,3′,3″,3′″-((([1,1′-biphenyl]-3,3′,5,5′-tetrayltetrakis(methylene))tetrakis(azanediyl))tetrakis(methylene))tetraphenol], the “Ka (M^−1) with β-Man” value in data set [3] amounted to 250 M⁻¹. The “Ka (M^−1) with α-Man” value in [4] was 150 M⁻¹. In addition, the “Ka with α-Glc” value in data set [5] (CD2Cl2, 298 K, 1:1 binding) came out at 310 M⁻¹. In [6], the dimerization in words entry is “Dimerization was observed”. In data set [1] (SCR023 vs SCR022, SCR017 vs SCR001), the “IC50 relative to regioisomer” value is listed as “at least four times higher”. Moreover, the “therapeutic index (TC50/IC50)” value in [1] (Table 3, Vero cells) is listed as 20. The half-maximal inhibitory concentration (IC50) in data set [1] (setting [14]) was 10.6 ± 5.9 µM; in data set [7] (setting [14]), below 20 µM. Besides, the “anti-ZIKV activity in words” value in data set [1] (Vero cells, ZIKV RVPs) is “weaker inhibition”. It took 207 ± 79 µM to reach half-maximal cytotoxicity in [8] (CC50 at 72 h).
With `Cc1ccc(C(=O)Nc2ccc(S(=O)(=O)O)c3cc(S(=O)(=O)O)cc(S(=O)(=O)O)c23)cc1NC(=O)c1cccc(NC(=O)Nc2cccc(C(=O)Nc3cc(C(=O)Nc4ccc(S(=O)(=O)O)c5cc(S(=O)(=O)O)cc(S(=O)(=O)O)c45)ccc3C)c2)c1` [Suramin, reference compound], the “inhibition of N154Q mutant RVPs in words” value in data set [9] is “inhibited”. In data set [1] (Vero cells, ZIKV RVPs), the “anti-ZIKV activity in words” value is recorded as “dose dependent inhibition of ZIKV infection”. The IC50 in data set [7] (Table 1, Vero cells, compounds 30 min before ZIKV RVPs, GFP+ cells 72 h postinfection) turned out to be 44 ± 4.19 µM. In addition, the CC50 at 72 h in data set [8] was above 200 µM.
`Oc1ccccc1CNCc1cc(CNCc2ccccc2O)cc(-c2cc(CNCc3ccccc3O)cc(CNCc3ccccc3O)c2)c1` [SCR022, 2,2′,2″,2′″-((([1,1′-biphenyl]-3,3′,5,5′-tetrayltetrakis(methylene))tetrakis(azanediyl))tetrakis(methylene))tetraphenol]: the “Ka (M^−1) with α-Man” value in [4] came to 280 M⁻¹. Further, the “K2 (2:1 SCR·glycan association constant) with β-Glc” value in data set [10] (2:1 SCR·glycan complexes) was determined as 690 M⁻¹. The “cumulative association constant β with β-Glc” value in data set [10] (2:1 SCR·glycan complexes) is given as 8.1×10^4 M^−2. In data set [10] (CD2Cl2, 298 K), the “K1 (1:1 association constant) with β-Glc” value amounted to 120 M⁻¹. In addition, in data set [10] (fold / ratio SCR:SCR001), the “affinity for β-Glc relative to SCR001” value is listed as 62. For the same compound, the “binding to α-Glc in words” value in data set [5] (NMR titrations) was “no substantial binding”. Besides, the “binding to β-Gal in words” value in [11] is given as “no substantial binding”. For the same compound, in data set [12] (five octyloxy pyranosides, CD2Cl2, 298 K), the “glycan preference in words” value is recorded as “prefer β-Glc”. Further, the “affinity for β-Glc over α-Man” value in [12] (times) worked out at 290. Further, the “therapeutic index (TC50/IC50)” value in data set [1] (Table 3, Vero cells) came out at 2. The “anti-ZIKV activity in words” value in [1] (Vero cells, ZIKV RVPs) is “potent anti-ZIKV activity”. Further, the IC50 was 2.5 ± 0.6 µM in [7] (setting [14]); below 5 µM in [7] (Table 3 study, Vero cells, ZIKV RVPs, unit μm [sic]); below 5 µM in data set [7] (read-out: IC50 (strong antiviral activity), Vero cells, ZIKV RVPs). This compound also returned a 50% cytotoxic concentration (CC50) at 72 h in data set [8] of 4.6 ± 1.1 µM. The “cellular toxicity in words” value in [13] was “toxic to Vero cells”.
